The values that follow come from patent publication US9487529B2, “Macrocyclic compounds as ALK, FAK and JAK2 inhibitors” (Cephalon, Inc., priority 2011, dated 2016).

Counter-ions that a name gives are not always drawn. Like-named read-outs stand apart in the source and are kept apart here.

For series [1] the following is noted: cc_pd bond, CH3CN, 120.0 °C.
The next series addresses T1, recombinant human FAK (Homo sapiens, UniProt Q05397).
T1 construct: purchased Invitrogen PV3832; host or cells: baculovirus expression system
Briefly: FAK Enzyme Assay (TRF detection). The class given is biochemical. Conditions: 10 μM ATP. The procedure:
Example compounds were tested for their ability to inhibit the kinase activity of baculovirus-expressed recombinant human FAK using the TRF detection system as described above for JAK2. IC50 runs were performed in 96-well Costar high binding plates (#3922). The plates were coated first with 100 μL/well of 10 μg/mL neutravidin in TBS at 37° C. for 2 h, followed by 100 μL/well of 1 μg/mL 15-mer peptide substrate (biotinyl-amino-hexanoyl-EQEDEPEGDYFEWLE-amide) at 37° C. for another hour. The FAK assay mixture (total volume=100 μL/well) consisting of 20 mM HEPES, pH 7.2, 10 μM ATP, 5 mM MgCl2, 0.5 mM DTT, 0.1% BSA, and test compound (diluted in DMSO; 2.5% DMSO final in assay) was then added to the assay plate. Enzyme (10 ng/mL FAK, Invitrogen #PV3832) was added and the reaction was allowed to proceed at room temperature for 30 minutes. Detection of the phosphorylated product was performed by adding 100 μL/well of Eu—N1 labeled PY100 antibody (diluted 1:75000 in antibody dilution buffer). Samples were incubated at room temperature for 1 hour, followed by addition of 100 μL enhancement solution. Plates were agitated for 10 minutes and fluorescence of the resulting solution measured using the PerkinElmer EnVision™ 2102 (or 2104) multi-label plate reader.
(§1) Data analysis was performed using ActivityBase (IDBS, Guilford, UK). IC50 values were calculated by plotting percent inhibition versus log10 of the concentration of compound and fitting to the nonlinear regression sigmoidal dose-response (variable slope) equation in XLFit (IDBS, Guilford, UK).

The target of series [2] is T2, human insulin receptor cytoplasmic domain (βIRCD) (Homo sapiens, UniProt P06213).
T2 construct: human insulin receptor cytoplasmic domain (βIRCD); host or cells: baculovirus expression system
Briefly: Insulin Receptor Kinase Assay (TRF). The class given is biochemical. Conditions: 20 μM ATP, read-out: IR IC50. The procedure:
Example compounds were tested for their ability to inhibit the kinase activity of baculovirus-expressed human insulin receptor cytoplasmic domain (βIRCD) using the TRF assay as described above for ALK. Phosphorylation of the substrate, recombinant GST-PLC-γ, was detected with a europium-labeled anti-phosphotyrosine antibody and measured by TRF. Each 96-well plate (Greiner#655074) was coated with 100 μL/well of 20 μg/mL substrate solution in TBS. The IR assay mixture (total volume=100 μL/well) consisting of 20 mM HEPES (pH 7.2), 20 μM ATP, 5 mM MnCl2, 0.1% BSA, and test compound (diluted in DMSO; 2.5% DMSO final in assay) was added to the assay plates. Enzyme (20 ng/mL βIRCD) was added and the reaction was allowed to proceed at room temperature for 20 minutes. Detection of the phosphorylated product was performed by adding 100 μL/well of Eu—N1 labeled PY100 antibody (PerkinElmer#AD0160; diluted 1:10,000 in TBS-T containing 0.25% BSA). Incubation at 37° C. for 1 hour was followed by addition of 50 μL enhancement solution (Wallace#1244-105). Plates were agitated for 10 minutes and the fluorescence was measured using the PerkinElmer EnVision™ 2102 or 2104 multi-label plate reader.
as §1

Series [3] concerns the target T3, baculovirus-expressed JAK2 (Homo sapiens, UniProt O60674).
T3 construct: host or cells: baculovirus expression system
Briefly: JAK2 Kinase Assay (TRF detection). The class given is biochemical. Conditions: 0.2 μM ATP; average of two or more determinations; class symbols. The procedure:
Compounds were tested for their ability to inhibit the kinase activity of baculovirus-expressed JAK2 using the TRF detection system. IC50 runs were conducted in 96-well Costar high binding plates (Corning Costar #3922, Corning, N.Y.). The plates were coated first with 100 μL/well of 10 μg/mL Neutravidin (Pierce #31000, Rockford, Ill.) in TBS at 37° C. for 2 hours, followed by 100 μL/well of 1 μg/mL 15-mer peptide substrate (biotinyl-amino-hexanoyl-EQEDEPEGDYFEWLE-amide, Infinity Biotech Research and Resource, Aston, Pa.) at 37° C. for another hour. The JAK2 assay mixture (total volume=100 μL/well) consisting of 20 mM HEPES, pH 7.2, 0.2 μM ATP, 1 mM MnCl2, 0.1% BSA, and test compound (diluted in DMSO; 2.5% DMSO final in assay) was then added to the assay plate. Enzyme (15 ng/ml JAK2) was added and the reaction was allowed to proceed at room temperature for 20 minutes. Detection of the phosphorylated product was performed by adding 100 μL/well of Eu—N1 labeled PY100 antibody (PerkinElmer Life Sciences #AD0041, Boston, Mass.). Incubation at the room temperature then proceeded for 1 hour, followed by addition of 100 μl enhancement solution (PerkinElmer Life Sciences #1244-105, Boston, Mass.). The plate was gently agitated and after thirty minutes, the fluorescence of the resulting solution was measured using the PerkinElmer EnVision™ 2102 (or 2104) multi-label plate reader.
as §1

Series [4] concerns the target T4, baculovirus-expressed ALK (Homo sapiens, UniProt Q9UM73).
T4 construct: host or cells: baculovirus expression system
Briefly: ALK Kinase Assay (ELISA/TRF). The class given is biochemical. Conditions: 1 μM ATP (Km level); average of two or more determinations; class symbols. The procedure:
Briefly, each 96-well plate was coated with 100 μL/well of 10 μg/mL substrate (GST-PLC-γ) in Tris-buffered saline (TBS). […] The reaction was initiated by adding enzyme (30 ng/mL ALK) and was allowed to proceed at 37° C. for 15 minutes. Detection of the phosphorylated product was performed by adding 100 μL/well of Eu—N1 labeled PT66 antibody (Perkin Elmer #AD0041). […] Data analysis was performed using ActivityBase (IDBS, Guilford, UK). IC50 values were calculated by plotting percent inhibition versus log10 of the concentration of compound and fitting to the nonlinear regression sigmoidal dose-response (variable slope) equation in XLFit (IDBS, Guilford, UK).
A general note: In an ELISA, binding on a coated surface is turned into a signal by an enzyme label.

[5] abbreviates: average of two or more determinations, class symbols.

T4 sequence (Q9UM73 19-1620): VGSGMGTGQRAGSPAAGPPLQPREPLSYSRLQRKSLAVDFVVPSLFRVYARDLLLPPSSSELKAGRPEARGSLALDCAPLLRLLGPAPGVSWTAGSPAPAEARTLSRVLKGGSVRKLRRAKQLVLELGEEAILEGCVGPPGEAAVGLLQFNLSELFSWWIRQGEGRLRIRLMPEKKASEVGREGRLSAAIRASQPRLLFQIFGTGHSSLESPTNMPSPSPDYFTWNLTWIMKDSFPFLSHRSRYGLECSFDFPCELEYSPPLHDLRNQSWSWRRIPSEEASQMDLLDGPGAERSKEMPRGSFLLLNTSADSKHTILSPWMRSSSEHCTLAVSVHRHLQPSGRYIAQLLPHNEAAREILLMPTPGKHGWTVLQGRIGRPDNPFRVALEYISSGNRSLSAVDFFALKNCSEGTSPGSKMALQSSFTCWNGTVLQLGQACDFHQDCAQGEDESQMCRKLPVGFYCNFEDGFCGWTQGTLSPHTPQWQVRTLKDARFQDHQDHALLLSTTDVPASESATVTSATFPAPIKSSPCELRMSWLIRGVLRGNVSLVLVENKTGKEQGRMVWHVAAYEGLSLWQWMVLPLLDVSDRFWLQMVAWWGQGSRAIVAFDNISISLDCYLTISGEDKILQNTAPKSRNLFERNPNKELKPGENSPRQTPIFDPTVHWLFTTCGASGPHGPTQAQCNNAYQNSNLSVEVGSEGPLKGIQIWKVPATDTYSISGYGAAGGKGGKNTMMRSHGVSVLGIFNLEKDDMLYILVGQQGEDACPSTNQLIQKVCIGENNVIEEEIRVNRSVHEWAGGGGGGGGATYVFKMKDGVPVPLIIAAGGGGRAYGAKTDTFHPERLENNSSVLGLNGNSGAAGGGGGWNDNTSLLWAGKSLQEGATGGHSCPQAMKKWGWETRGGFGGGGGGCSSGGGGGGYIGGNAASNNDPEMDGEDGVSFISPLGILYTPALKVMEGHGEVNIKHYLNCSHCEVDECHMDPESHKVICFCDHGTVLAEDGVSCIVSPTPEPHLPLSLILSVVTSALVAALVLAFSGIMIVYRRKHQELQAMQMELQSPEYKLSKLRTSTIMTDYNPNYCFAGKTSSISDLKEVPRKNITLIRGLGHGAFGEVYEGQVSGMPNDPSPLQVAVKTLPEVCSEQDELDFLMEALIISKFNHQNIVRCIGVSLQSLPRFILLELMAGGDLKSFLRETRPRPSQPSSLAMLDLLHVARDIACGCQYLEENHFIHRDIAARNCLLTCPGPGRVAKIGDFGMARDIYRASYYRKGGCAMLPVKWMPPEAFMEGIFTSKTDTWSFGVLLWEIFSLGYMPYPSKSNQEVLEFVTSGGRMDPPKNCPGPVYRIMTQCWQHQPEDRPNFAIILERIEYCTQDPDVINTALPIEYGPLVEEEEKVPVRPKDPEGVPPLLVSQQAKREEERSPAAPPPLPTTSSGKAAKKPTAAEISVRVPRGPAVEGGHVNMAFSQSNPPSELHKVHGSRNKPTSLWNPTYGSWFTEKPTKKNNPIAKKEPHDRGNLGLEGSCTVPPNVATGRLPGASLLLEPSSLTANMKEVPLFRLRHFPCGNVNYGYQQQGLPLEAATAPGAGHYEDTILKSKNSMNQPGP
T2 sequence (P06213 980-1382 limits assumed): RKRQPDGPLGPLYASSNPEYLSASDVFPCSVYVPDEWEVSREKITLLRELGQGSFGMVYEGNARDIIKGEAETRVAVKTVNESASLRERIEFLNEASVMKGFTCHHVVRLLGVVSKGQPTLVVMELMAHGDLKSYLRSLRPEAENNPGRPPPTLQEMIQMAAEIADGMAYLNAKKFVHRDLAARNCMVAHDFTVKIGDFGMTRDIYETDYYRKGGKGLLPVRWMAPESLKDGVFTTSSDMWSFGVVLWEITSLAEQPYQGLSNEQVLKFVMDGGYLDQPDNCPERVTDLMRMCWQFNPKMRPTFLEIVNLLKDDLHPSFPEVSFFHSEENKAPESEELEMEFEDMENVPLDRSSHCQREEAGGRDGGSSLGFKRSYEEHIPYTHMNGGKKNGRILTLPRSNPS
T1 sequence (Q05397 whole entry): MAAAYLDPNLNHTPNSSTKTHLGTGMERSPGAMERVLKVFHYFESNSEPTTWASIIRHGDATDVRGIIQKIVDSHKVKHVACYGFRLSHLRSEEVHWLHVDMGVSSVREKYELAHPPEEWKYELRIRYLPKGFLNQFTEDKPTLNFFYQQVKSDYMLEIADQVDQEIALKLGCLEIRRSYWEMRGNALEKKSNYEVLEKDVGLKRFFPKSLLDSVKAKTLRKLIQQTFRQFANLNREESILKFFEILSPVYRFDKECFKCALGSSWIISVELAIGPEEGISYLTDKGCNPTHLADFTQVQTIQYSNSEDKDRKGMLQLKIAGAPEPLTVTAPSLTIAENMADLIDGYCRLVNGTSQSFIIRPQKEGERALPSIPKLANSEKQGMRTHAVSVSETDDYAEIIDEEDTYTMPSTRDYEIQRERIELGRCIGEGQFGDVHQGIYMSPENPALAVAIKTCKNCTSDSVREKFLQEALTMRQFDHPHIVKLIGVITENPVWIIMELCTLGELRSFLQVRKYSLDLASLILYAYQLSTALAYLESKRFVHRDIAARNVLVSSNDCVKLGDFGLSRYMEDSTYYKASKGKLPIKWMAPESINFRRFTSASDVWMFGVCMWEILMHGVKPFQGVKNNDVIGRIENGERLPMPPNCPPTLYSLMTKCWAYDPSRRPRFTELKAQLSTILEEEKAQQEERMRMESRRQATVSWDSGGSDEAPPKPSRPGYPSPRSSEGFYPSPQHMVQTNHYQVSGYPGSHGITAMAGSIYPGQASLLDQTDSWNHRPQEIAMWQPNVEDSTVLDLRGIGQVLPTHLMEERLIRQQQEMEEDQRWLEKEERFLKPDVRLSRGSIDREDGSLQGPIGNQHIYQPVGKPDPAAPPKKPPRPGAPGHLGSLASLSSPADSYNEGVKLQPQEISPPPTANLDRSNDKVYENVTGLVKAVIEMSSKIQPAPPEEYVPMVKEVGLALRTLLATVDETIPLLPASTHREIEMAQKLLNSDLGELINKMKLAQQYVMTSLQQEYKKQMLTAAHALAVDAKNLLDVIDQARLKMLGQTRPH
T3 sequence (O60674 whole entry): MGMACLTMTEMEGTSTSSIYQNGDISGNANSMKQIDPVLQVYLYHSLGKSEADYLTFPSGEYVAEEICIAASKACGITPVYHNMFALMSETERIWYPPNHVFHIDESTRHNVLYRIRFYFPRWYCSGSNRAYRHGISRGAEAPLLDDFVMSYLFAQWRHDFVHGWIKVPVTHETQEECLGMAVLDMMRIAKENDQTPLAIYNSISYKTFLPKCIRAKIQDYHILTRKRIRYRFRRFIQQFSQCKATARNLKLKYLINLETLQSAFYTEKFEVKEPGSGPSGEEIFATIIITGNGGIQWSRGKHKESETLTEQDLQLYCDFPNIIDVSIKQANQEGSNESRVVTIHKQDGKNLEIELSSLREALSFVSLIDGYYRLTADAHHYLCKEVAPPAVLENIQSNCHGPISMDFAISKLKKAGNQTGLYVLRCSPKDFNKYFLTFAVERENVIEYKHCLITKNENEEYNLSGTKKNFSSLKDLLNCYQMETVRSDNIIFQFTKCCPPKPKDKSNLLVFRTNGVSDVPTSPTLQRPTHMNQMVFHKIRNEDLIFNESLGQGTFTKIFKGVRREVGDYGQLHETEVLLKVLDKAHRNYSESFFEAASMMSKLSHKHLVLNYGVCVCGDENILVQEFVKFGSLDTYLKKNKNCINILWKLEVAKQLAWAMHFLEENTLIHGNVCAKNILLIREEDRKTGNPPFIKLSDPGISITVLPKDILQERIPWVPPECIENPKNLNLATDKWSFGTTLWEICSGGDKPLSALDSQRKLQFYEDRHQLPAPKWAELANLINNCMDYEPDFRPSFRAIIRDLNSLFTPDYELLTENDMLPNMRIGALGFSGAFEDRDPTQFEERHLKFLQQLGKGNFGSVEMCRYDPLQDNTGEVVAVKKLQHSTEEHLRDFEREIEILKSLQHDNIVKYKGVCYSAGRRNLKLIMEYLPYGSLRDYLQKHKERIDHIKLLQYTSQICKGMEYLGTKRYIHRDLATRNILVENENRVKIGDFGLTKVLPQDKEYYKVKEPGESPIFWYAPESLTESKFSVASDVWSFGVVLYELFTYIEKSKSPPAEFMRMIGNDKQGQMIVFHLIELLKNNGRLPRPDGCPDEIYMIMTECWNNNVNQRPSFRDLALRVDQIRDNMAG

A word on the melting point: it is the temperature of the solid-liquid transition. Broadly, the IC50 is the concentration needed to halve the response being measured. `COc1cc(N2CCN(C)CC2)c2cc1Nc1ncc(Cl)c(n1)Nc1cc(ccc1N(C)S(C)(=O)=O)/C=C\2` [Example 4, (14Z)-6-Chloro-10-(2-methanesulfonyl-methyl-amino)-17-(4-methylpiperazin-1-yl)-19-methoxy-2,4,8,22-tetraazatetracyclo[14.3.1.1^3,7.1^9,13]docosa-1(20),3(22),4,6,9(21),10,12,14,16,18-decaene] returned a melting point of 278 to 280 °C. The same compound gave a ring closure, yield of all isomers in series [1] (from C=Cc1ccc(N(C)S(C)(=O)=O)c(Nc2nc(Nc3cc(Br)c(N4CCN(C)CC4)cc3OC)ncc2Cl)c1, Pd(OAc)2 / tri-o-tolylphosphine, Et3N, 46.7 mM, 0.25 h) of 72%. The IC50 at recombinant human FAK (setting [5]) was less than 10 nM. On recombinant human FAK (given as numeric bound), the IC50 was more than 3000 nM. Moreover, in series [2] (setting [5]), the IC50 was in the range of 1000 to 10000 nM. The IC50 in series [2] (given as numeric bound) was more than 2000 nM.
`COc1cc(C2CCN(C)CC2)c2cc1Nc1ncc(Cl)c(n1)Nc1cc(ccc1N(C)S(C)(=O)=O)/C=C\2` [Example 7, (14Z)-6-Chloro-10-(2-methanesulfonyl-methyl-amino)-17-(1-methyl-piperidin-4-yl)-19-methoxy-2,4,8,22-tetraazatetracyclo[14.3.1.1^3,7.1^9,13]docosa-1(20),3(22),4,6,9(21),10,12,14,16,18-decaene] had a melting point of 244 to 246 °C. The IC50 in series [3] was in the range of 1000 to 10000 nM. This compound yielded an IC50 in series [4] of 10 to 100 nM. Besides, the IC50 on recombinant human FAK (setting [5]) is less than 10 nM. Also, the IC50 in series [2] (given as numeric bound) was more than 2000 nM.
Take `CC(C)S(=O)(=O)c1ccc2cc1Nc1nc(ncc1Cl)Nc1ccc(N3CCN(C)CC3)c(c1)/C=C\2` [Example 11, (14Z)-6-Chloro-10-(propane-2-sulfonyl)-17-(4-methylpiperazin-1-yl)-2,4,8,22-tetraazatetracyclo[14.3.1.1^3,7.1^9,13]docosa-1(20),3(22),4,6,9(21),10,12,14,16,18-decaene Trifluoroacetate (1:1)]: the IC50 is less than 10 nM in series [3], 10 to 100 nM in series [4], 10 to 100 nM at recombinant human FAK (setting [5]) and 1000 to 10000 nM in series [2] (setting [5]). In series [1] (from C=Cc1cc(Nc2ncc(Cl)c(Nc3cc(Br)ccc3S(=O)(=O)C(C)C)n2)ccc1N1CCN(C)CC1, Pd(OAc)2 / P(o-tolyl)3 / Et3N, 65.0 mM, 2.0 h), this compound came in with a ring closure, yield of all isomers of 32%.
As for `CC(C)S(=O)(=O)c1ccc2cc1Nc1nc(ncc1Cl)Nc1ccc(N3CCN(C)CC3)c(c1)CC2` [Example 12, 6-Chloro-10-(propane-2-sulfonyl)-17-(4-methylpiperazin-1-yl)-2,4,8,22-tetraazatetracyclo[14.3.1.1^3,7.1^9,13]docosa-1(20),3(22),4,6,9(21),10,12,16,18-nonaene], the melting point was more than 250 °C. Further, the IC50 in series [3] was less than 10 nM. Further, at recombinant human FAK (setting [5]), the half-maximal inhibitory concentration (IC50) was less than 10 nM. Further, the IC50 in series [2] (setting [5]) lay within 10 to 100 nM.
Consider `CN1CCN(c2ccc3cc2CCc2ccc(S(C)(=O)=O)c(c2)Nc2nc(ncc2Cl)N3)CC1` [Example 19, 6-Chloro-10-(methanesulfonyl)-17-(4-methylpiperazin-1-yl)-2,4,8,22-tetraazatetracyclo[14.3.1.1^3,7.1^9,13]docosa-1(20),3(22),4,6,9(21),10,12,16,18-nonaene], for which the melting point is more than 250 °C. The compound further yielded a 50% inhibitory concentration (IC50) in series [3] of 10 to 100 nM. The IC50 in series [4] fell in the range of 10 to 100 nM. For the same compound, the IC50 at recombinant human FAK (setting [5]) was in the range of 10 to 100 nM. Further, the IC50 in series [2] (setting [5]) lay within 101 to 1000 nM.
